Test results taken from patent publication US11039618B2, “Metam salts and polysulfide soil treatment” (Tessenderlo Kerley, Inc, priority 2016, dated 2021).

What was measured:
[1] = tested on: V. dahliae; test: Field test near Moses Lake, Wash.: V. dahliae colonies in soil after shank treatment; set-up: species or system Verticillium dahliae; details: average of three sample sites, metam sodium 191 pounds/acre, calcium polysulfide 276 pounds/acre
Experimental: A field test was performed in small plots in a grower's location in near Moses Lake, Wash. using commercial equipment, shanking the product 8-9 inches into the ground, in February 2016. A few treated areas were sampled a few months after treatment. This field is believed to be low in pest pressure. […] The mixture is compatible as a ground application, including using standard tanks, hoses, nozzles, and shanks. It is believed the product will also be stable when added to water to form a dilute product, due to the sodium or potassium hydroxide in metam. Therefore, alkali sulfide salts need not be added.
Location 1 was treated with 45 gallons per acre of Sectagon®, the metam sodium solution, equivalent to 191 pounds metam sodium per acre. This is considered a standard treatment protocol. Section 2 was treated with only liquid lime sulfur, at 90 gallons per acre (276 pounds calcium polysulfide/acre). Section 3 was treated with 30 gallons per acre Sectagon® and 30 gallons per acre liquid lime sulfur (92 pounds calcium polysulfide and 127 pounds metam sodium per acre). The treatment chemicals were obtained from Tessenderlo Kerley. A sufficient time following the treatments, V. dahliae concentrations and black dot concentrations were determined at 4 inches depth and at 8 inches depth at three random sample sites in each treated plot. No controls were run, and the variability in samples were high. […]

[2] = tested on: Verticillium; test: Example 6: Verticillium population in treated farm soil samples; assay type: cell-based; details: soil from another location
[3] = tested on: Verticillium dahliae; test: Plate tests: Verticillium counts in treated greenhouse soil; assay type: cell-based; details: 20 gal./acre metam
Experimental: Seven days after treatment, one soil sample per replicate was taken. V. dahliae control efficacy was assessed according to the methods below. Soil mixture was dried two weeks under greenhouse conditions. The quantity of V. dahliae in the soil was/will be assessed by dry soil plating on semi-selective medium. Dry soil samples were crushed and sieved through a #20 mesh. A small portion of each sample was incubated on six NP-10 semi-selective plates with a 6-stage Impactor (Anderson Samplers Inc., Atlanta, Ga.), using stages 2 and 3. Semi-selective NP-10 medium was prepared according to Kabir et al. (2004) and incubated at 24° C. in the dark for four weeks after spreading 0.5 g of soil. After incubation, the remaining soil was be gently washed off the plates and the number of V. dahliae microsclerotia colonies were counted on each plate under a microscope. The number of microsclerotia colonies equals the quantity of V. dahliae in soil and were extrapolated to 1 g of soil.
Plate tests were performed on selected samples to determine the Verticillium counts in treated soil through Aug. 17, 2017. Plate tests were performed as described previously. The untreated control comparative sample 1 averaged 32.5 ms per gram of soil. For reasons not known, the water check comparative sample 2, with no active ingredients added, contained only 11.5 ms per gram of soil. […]

[4] = tested on: Verticillium; test: Jar test 2015: Verticillium microsclerotia colonies in treated soil (soil moisture 35% w/w); assay type: cell-based, Verticillium dahliae; details: Metam 68 gal/acre (323 kg active/ha)
Experimental: These investigations were performed under laboratory conditions in an initial jar test. We also investigated the pathogen control efficacy of LSS treatments, at 30 gal/acre (90 pounds/acre or 101 Kg/ha of calcium polysulfide) and at 90 gal/acre (276 pounds/acre or 310 Kg/ha of calcium polysulfide), and combined Metam/LSS treatments using Sectagon® brand metam at 20 gal/acre Metam (84 pounds/acre or 94 Kg/ha of metam sodium) with 40 gal/acre LSS (122 pounds/acre or 138 Kg/ha of calcium polysulfide); and at 30 gal/acre Metam (126 pounds/acre or […] of metam sodium) with 20 gal/acre LSS (60 pounds/acre or 67 kg/ha of calcium polysulfide). […] This may be due to lower water saturation in the 2016 tests compared to the saturation in 2015 tests, which was near 100%.
The major difference between the 2015 tests and the 2016 tests was soil moisture. For the 2015 tests the soil moisture was set at 35% w/w (ca. 100% field capacity). For the 2016 tests, the soil moisture was set at 20% w/w (ca. 66% field capacity).
Differences in test protocol between 2015 and 2016 tests are summarized below, and colony counts per gram of dry soil for the 2015 tests are shown below.
2015: Soil Moisture 35% w/w (ca. 100% field capacity)
2016: Decided 2015 soil moisture was too high; reduced to 20% w/w. […]

## CNC(=S)S [Metam, sodium methyldithiocarbamate]
[1]; mixture 92 + 127 pounds/acre
  averaged colonies of V. dahlia per gram of soil at four inches: 30 colonies per gram of soil
[1]; mixture 92 + 127 pounds/acre (8 inch samples called suspect)
  averaged colonies of V. dahlia per gram of soil at eight inches: 3 colonies per gram of soil
[2]
  suppression of the Verticillium: only modest suppression
[2]; average over rates: LSS 45 and 90 gal/acre, metam sodium 20 and 40 gal/acre, mixture 20 and 40 gal metam with 45 gal LSS, untreated 41
  average Verticillium CFU per gram of dry soil: 30 CFU per gram of dry soil
[3]
  Verticillium dahliae population: 3 ms per gram of soil
[4]
  Microsclerotia (Verticillium) per gram of soil, ms/g, 2015: 3 ms/g
